{
  "source": "patent US8772494B2",
  "about": "“N-aryl piperidine substituted biphenylcarboxamides as inhibitors of apolipoprotein b” (Janssen Pharmaceutica N.V., priority 2003, dated 2014)",
  "key": {"[1]": {"tested_on": "ApoB secretion, HepG2 cells", "experiment": "Quantification of the secretion of ApoB", "format": "cell-based", "conditions": "Homo sapiens, 24 hours of incubation, secreted apoB immunoprecipitated, read-out: pIC50 values (= −log IC50 value) (converted)", "experimental": "HepG2 cells were cultured in 24-well plates in MEM Rega 3 containing 10% fetal calf serum. At 70% confluency, the medium was changed and the test compound or carrier (DMSO, 0.4% final concentration) was added. After 24 hours of incubation, the medium was transferred to Eppendorf tubes and cleared by centrifugation. A sheep antibody directed against either apoB was added to the supernatant and the mixture was kept at 8° C. for 24 hours. Then, rabbit anti-sheep antibody was added and the immune complex was allowed to precipitate for 24 hours at 8° C. The immunoprecipitate was pelleted by centrifugation for 25 minutes at 1320 g and washed twice with a buffer containing 40 mM Mops, 40 mM NaH2PO4, 100 mM NaF, 0.2 mM DTT, 5 mM EDTA, 5 mM EGTA, 1% Triton-X-100, 0.5% sodium deoxycholate (DOC), 0.1% SDS, 0.2 μM leupeptin and 0.2 μM PMSF. Radioactivity in the pellet was quantified by liquid scintillation counting.\nResulting IC50 values are enumerated in Table C.1. When the calculated IC50 was below 6, not enough data points were available at the tested concentrations to calculate an IC50 value."}, "[2]": {"target": "MTP (Homo sapiens, UniProt P55157)", "sequence (P55157 19-894, species assumed)": "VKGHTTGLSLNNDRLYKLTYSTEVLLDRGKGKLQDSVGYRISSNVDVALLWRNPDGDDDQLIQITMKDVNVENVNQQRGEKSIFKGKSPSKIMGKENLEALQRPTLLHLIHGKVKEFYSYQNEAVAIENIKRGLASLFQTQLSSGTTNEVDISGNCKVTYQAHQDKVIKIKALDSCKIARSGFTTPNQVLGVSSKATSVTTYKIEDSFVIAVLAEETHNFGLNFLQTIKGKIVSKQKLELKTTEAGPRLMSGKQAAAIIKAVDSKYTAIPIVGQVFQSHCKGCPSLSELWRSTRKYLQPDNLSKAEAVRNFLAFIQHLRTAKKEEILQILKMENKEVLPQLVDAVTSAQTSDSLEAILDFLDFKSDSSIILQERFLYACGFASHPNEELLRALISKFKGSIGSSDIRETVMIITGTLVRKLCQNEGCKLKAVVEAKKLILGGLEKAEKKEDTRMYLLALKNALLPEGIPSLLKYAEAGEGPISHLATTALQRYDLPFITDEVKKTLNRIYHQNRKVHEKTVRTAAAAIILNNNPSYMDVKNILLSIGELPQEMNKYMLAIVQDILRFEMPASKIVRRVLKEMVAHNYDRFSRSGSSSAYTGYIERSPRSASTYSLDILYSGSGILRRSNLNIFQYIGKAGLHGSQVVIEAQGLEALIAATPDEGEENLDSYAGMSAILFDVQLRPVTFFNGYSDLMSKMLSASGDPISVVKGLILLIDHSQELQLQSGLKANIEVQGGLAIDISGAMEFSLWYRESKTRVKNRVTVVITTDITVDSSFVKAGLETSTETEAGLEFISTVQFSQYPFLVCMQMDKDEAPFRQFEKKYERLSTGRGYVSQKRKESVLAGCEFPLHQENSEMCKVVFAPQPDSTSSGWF", "sequence (P07237 18-508 partner, species assumed)": "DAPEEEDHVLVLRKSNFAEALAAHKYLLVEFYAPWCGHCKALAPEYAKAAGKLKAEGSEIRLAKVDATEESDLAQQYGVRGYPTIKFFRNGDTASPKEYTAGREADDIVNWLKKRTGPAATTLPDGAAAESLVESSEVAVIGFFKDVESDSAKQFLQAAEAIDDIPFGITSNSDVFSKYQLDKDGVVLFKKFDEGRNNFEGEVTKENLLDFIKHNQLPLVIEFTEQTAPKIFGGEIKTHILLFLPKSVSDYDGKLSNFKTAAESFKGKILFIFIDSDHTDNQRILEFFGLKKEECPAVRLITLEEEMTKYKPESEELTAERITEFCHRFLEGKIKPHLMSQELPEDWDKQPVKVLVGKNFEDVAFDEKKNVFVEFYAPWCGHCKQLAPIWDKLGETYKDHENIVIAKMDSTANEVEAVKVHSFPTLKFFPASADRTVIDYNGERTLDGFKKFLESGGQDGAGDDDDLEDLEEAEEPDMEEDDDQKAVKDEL", "experiment": "MTP assay (triglyceride transfer from donor to acceptor vesicles)", "format": "biochemical", "conditions": "MTP activity, percent triglyceride transfer, 37° C.; read-out: pIC50 values (= −log IC50 value) (converted)", "experimental": "MTP activity was measured using an assay similar to one described by J. R. Wetterau and D. B. Zilversmit in Chemistry and Physics of Lipids, 38, 205-222 (1985). To prepare the donor and acceptor vesicles, the appropriate lipids in chloroform were put into a glass test tube and dried under a stream of N2. A buffer containing 15 mM Tris-HCl pH 7.5, 1 mM EDTA, 40 mM NaCl, 0.02% NaN3 (assay buffer) was added to the dried lipid. The mixture was vortexed briefly and the lipids were then allowed to hydrate for 20 min on ice. Vesicles were then prepared by bath sonication (Branson 2200) at room temperature for maximum 15 min. Butylated hydroxytoluene was included in all vesicle preparations at a concentration of 0.1%. The lipid transfer assay mixture contained donor vesicles (40 nmol phosphatidylcholine, 7.5 mol % of cardiolipin and 0.25 mol % glycerol tri [1-^14C]-oleate), acceptor vesicles (240 nmol phosphatidylcholine) and 5 mg BSA in a total volume of 675 μl in a 1.5 ml microcentrifuge tube. Test compounds were added dissolved in DMSO (0.13% final concentration). After 5 minutes of pre-incubation at 37° C., the reaction was started by the addition of MTP in 100 μl dialysis buffer. The reaction was stopped by the addition of 400 μl DEAE-52 cellulose pre-equilibrated in 15 mM Tris-HCl pH 7.5, 1 mM EDTA, 0.02% NaN3 (1:1, vol/vol). The mixture was agitated for 4 min and centrifuged for 2 min at maximum speed in an Eppendorf centrifuge (4° C.) to pellet the DEAE-52-bound donor vesicles. An aliquot of the supernatant containing the acceptor liposomes was counted and the [^14C]-counts were used to calculate the percent triglyceride transfer from donor to acceptor vesicles.\nResulting IC50 values are enumerated in Table C.2. When the calculated IC50 was below 7, not enough data points were available at the tested concentrations to calculate an IC50 value."}},
  "data": [
    {"smiles": "CCOC(=O)CC[C@H](NC(=O)CC1CCN(c2ccc(NC(=O)c3ccccc3-c3ccc(C(F)(F)F)cc3)cc2)CC1)C(=O)OCC", "note": "[Compound 34]", "values": [
      {"measurement": "IC50", "setting": "[1]", "result": "> 1000", "unit": "nM"},
      {"measurement": "IC50", "setting": "[2]", "result": 12.1, "unit": "nM"}
    ]},
    {"smiles": "COC(=O)[C@H](CCCN)NC(=O)CC1CCN(c2ccc(NC(=O)c3ccccc3-c3ccc(C(F)(F)F)cc3)cc2)CC1", "note": "[Compound 28]", "values": [
      {"measurement": "IC50", "setting": "[1]", "result": "> 1000", "unit": "nM"},
      {"measurement": "IC50", "setting": "[2]", "result": "> 100", "unit": "nM"}
    ]},
    {"smiles": "COC(=O)C1C[C@@H](O)CN1C(=O)CC1CCN(c2ccc(NC(=O)c3ccccc3-c3ccc(C(F)(F)F)cc3)cc2)CC1", "note": "(stereo partly shown) [Compound 15]", "values": [
      {"measurement": "IC50", "setting": "[1]", "result": "> 1000", "unit": "nM"},
      {"measurement": "IC50", "setting": "[2]", "result": "> 100", "unit": "nM"}
    ]},
    {"smiles": "CCOC(=O)CNC(=O)CC1CCN(c2ccc(NC(=O)c3ccccc3-c3ccc(C(F)(F)F)cc3)cc2)CC1", "note": "[Compound 37]", "values": [
      {"measurement": "IC50", "setting": "[1]", "result": 44.8, "unit": "nM"},
      {"measurement": "IC50", "setting": "[2]", "result": 5.01, "unit": "nM"}
    ]},
    {"smiles": "COC(=O)[C@H]1CCCCN1C(=O)CC1CCN(c2ccc(NC(=O)c3ccccc3-c3ccc(C(F)(F)F)cc3)cc2)CC1", "note": "[Compound 9]", "values": [
      {"measurement": "IC50", "setting": "[1]", "result": "> 1000", "unit": "nM"},
      {"measurement": "IC50", "setting": "[2]", "result": "> 100", "unit": "nM"}
    ]},
    {"smiles": "CCOC(=O)C(C)(C)NC(=O)CC1CCN(c2ccc(NC(=O)c3cccc(C)c3-c3ccc(C(F)(F)F)cc3)cc2)CC1", "note": "[Compound 42]", "values": [
      {"measurement": "IC50", "setting": "[1]", "result": 152, "unit": "nM"},
      {"measurement": "IC50", "setting": "[2]", "result": 14.9, "unit": "nM"}
    ]},
    {"smiles": "COC(=O)C(C)NC(=O)CC1CCN(c2ccc(NC(=O)c3ccccc3-c3ccc(C(F)(F)F)cc3)cc2)CC1", "note": "(stereo not shown) [Compound 3]", "values": [
      {"measurement": "IC50", "setting": "[1]", "result": 61.4, "unit": "nM"},
      {"measurement": "IC50", "setting": "[2]", "result": 7.82, "unit": "nM"}
    ]},
    {"smiles": "CCOC(=O)CN(C)C(=O)CC1CCN(c2ccc(NC(=O)c3ccccc3-c3ccc(C(F)(F)F)cc3)cc2)CC1", "note": "[Compound 33]", "values": [
      {"measurement": "IC50", "setting": "[1]", "result": "> 1000", "unit": "nM"},
      {"measurement": "IC50", "setting": "[2]", "result": 69.5, "unit": "nM"}
    ]},
    {"smiles": "CCOC(=O)C(CCSC)NC(=O)CC1CCN(c2ccc(NC(=O)c3ccccc3-c3ccc(C(F)(F)F)cc3)cc2)CC1", "note": "(stereo not shown) [Compound 7]", "values": [
      {"measurement": "IC50", "setting": "[1]", "result": 138, "unit": "nM"},
      {"measurement": "IC50", "setting": "[2]", "result": 25.5, "unit": "nM"}
    ]},
    {"smiles": "CCOC(=O)[C@H](Cc1ccc(O)cc1)NC(=O)CC1CCN(c2ccc(NC(=O)c3ccccc3-c3ccc(C(F)(F)F)cc3)cc2)CC1", "note": "[Compound 31]", "values": [
      {"measurement": "IC50", "setting": "[1]", "result": "> 1000", "unit": "nM"},
      {"measurement": "IC50", "setting": "[2]", "result": 81.1, "unit": "nM"}
    ]},
    {"smiles": "CCOC(=O)[C@@H]1CCCN1C(=O)CC1CCN(c2ccc(NC(=O)c3ccccc3-c3ccc(C(F)(F)F)cc3)cc2)CC1", "note": "[Compound 32]", "values": [
      {"measurement": "IC50", "setting": "[1]", "result": 406, "unit": "nM"},
      {"measurement": "IC50", "setting": "[2]", "result": 31.6, "unit": "nM"}
    ]}
  ]
}
